# Measurements: US20230348453A1, “HALOGENATED-HETEROARYL AND OTHER HETEROCYCLIC KINASE INHIBITORS, AND USES THEREOF” (iOmx Therapeutics AG, priority 2020, published 2023)
# Tests used:
# [1] = target: SIK3 (Homo sapiens (Human), UniProt Q9Y2K2); conditions: read-out: SIK3 IC50
# [2] = microsomes
# [3] = microsomes; remark: listed apart in the source
# [4] = in vitro; conditions: human, microsomes
# [5] = in vitro; conditions: mouse, microsomes
# [6] = Human plasma-protein binding; conditions: Table 5A
# [7] = Murine plasma protein binding; conditions: Table 5A
smiles,measurement,setting,value
"Cc1nc(Nc2ncc(C(=O)Nc3c(C)nn(C)c3C)s2)cc(N2CCN(CCO)CC2)n1 [Compound C8, 2-((6-(4-(2-hydroxyethyl)piperazin-1-yl)-2-methylpyrimidin-4-yl)amino)-N-(1,3,5-trimethyl-1H-pyrazol-4-yl)thiazole-5-carboxamide]",IC50,[1],9.73 µM
same,"Human liver microsomal stability, Intrinsic clearance",[2],< 14 µL/min/mg
same,"Mouse liver microsomal stability, Intrinsic clearance (L/min/mg)",[3],< 14 µL/min/mg
same,Kinetic solubility,,189 µM
same,half-life,[4],> 100 min
same,half-life,[5],> 100 min
same,"Human plasma-protein binding, Percentage unbound (%)",[6],5%
same,"Murine plasma protein binding, Percentage unbound (%)",[7],62%
